Assay results from ChEMBL document CHEMBL3886378, “Heterocyclic sulfone mGluR4 allosteric potentiators, compositions, and methods of treating neurological dysfunction” (2015).

molecular target: Metabotropic glutamate receptor 4 (Homo sapiens, UniProt Q14833); assay: Receptor Activity Assay: The disclosed compounds and compositions can be evaluated for their ability to act as a potentiator of metabotropic glutamate receptor activity, in particular mGluR4 activity, by any suitable known methodology known in the art. For example, Chinese Hamster Ovary (CHO) cells transfected with human mGluR4 or HEK cells co-transfected with rat mGluR4 and the G-protein regulated Inwardly Rectifying Potassium channel (GIRK) were plated in clear bottom assay plates for assay in a Hamamatsu FDSS Fluorometric Plate Reader. The cells were loaded with either a Ca2+-sensitive fluorescent dye or the thallium responsive dye and the plates were washed and placed into a suitable kinetic plate reader. For human mGluR4 assays, a fluorescence baseline was established for 3-5 seconds, the disclosed compounds were then added to the cells, and the response in cells was measured.; type: functional, cell-based, HEK293
Sequence (Q14833 whole entry): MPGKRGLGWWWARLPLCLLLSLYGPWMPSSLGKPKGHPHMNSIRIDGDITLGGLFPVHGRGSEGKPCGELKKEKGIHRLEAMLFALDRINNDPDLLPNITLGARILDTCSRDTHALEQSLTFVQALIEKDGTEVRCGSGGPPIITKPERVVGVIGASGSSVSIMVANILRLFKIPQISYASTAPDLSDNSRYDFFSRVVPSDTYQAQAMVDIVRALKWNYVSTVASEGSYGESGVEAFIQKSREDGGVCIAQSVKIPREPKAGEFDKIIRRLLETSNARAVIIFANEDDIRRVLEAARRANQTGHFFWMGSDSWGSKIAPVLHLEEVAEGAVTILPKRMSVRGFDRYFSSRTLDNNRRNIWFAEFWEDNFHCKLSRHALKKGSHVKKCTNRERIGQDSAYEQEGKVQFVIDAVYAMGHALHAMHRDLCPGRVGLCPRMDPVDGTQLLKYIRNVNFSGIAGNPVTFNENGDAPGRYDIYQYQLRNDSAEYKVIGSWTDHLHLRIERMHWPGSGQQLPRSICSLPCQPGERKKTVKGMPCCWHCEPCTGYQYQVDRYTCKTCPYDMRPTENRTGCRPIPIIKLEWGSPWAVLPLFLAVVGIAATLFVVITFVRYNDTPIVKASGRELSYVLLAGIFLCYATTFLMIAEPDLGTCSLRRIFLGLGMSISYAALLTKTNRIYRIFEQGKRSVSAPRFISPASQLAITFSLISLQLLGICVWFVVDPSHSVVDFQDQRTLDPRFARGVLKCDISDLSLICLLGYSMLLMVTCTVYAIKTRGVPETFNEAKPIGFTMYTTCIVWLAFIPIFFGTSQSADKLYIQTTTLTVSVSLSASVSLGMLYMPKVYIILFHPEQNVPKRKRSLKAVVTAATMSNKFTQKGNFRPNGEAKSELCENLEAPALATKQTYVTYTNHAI

| EC50 | Structure (SMILES) |
| --- | --- |
| 1070 nM | Cc1nc(NC(=O)c2ccccn2)sc1S(=O)(=O)Cc1cc(F)ccc1F |
| 271 nM | O=C(Nc1nc(C(F)(F)F)c(S(=O)(=O)Cc2ccccc2Cl)s1)c1ccccn1 |
| 504 nM | Cc1nc(NC(=O)c2ccccn2)sc1S(=O)(=O)Cc1ccccc1Cl |
| 937 nM | Cc1nc(NC(=O)c2ccccn2)sc1S(=O)(=O)Cc1ccc(F)c(F)c1 |
| 939 nM | CCc1nc(NC(=O)c2ccccn2)sc1S(=O)(=O)Cc1ccc(Cl)cc1Cl |
| 1020 nM | Cc1nc(NC(=O)c2ccccn2)sc1S(=O)(=O)Cc1ccccc1C(F)(F)F |
| 4780 nM | Cc1nc(NC(=O)c2ccccn2)sc1S(=O)(=O)C(C)c1ccccc1F (stereo not given) |
| 401 nM | O=C(Nc1nc(C(F)(F)F)c(S(=O)(=O)Cc2ccccc2F)s1)c1ccccn1 |
| 8240 nM | O=C(Nc1ncc(SCc2ccc(Cl)cc2F)s1)c1ccccn1 |
| 2460 nM | Cc1nc(NC(=O)c2ccccn2)sc1S(=O)(=O)Cc1cccc(C(F)(F)F)c1 |
| 486 nM | Cc1nc(NC(=O)c2ccccn2)sc1S(=O)(=O)Cc1ccc(Cl)cc1 |
| 9570 nM | CC(C)c1nc(NC(=O)c2ccccn2)sc1S(=O)(=O)C(C)c1ccccc1F (stereo not given) |
| 1610 nM | Cc1ccc(S(=O)(=O)c2sc(NC(=O)c3ccccn3)nc2C)cc1 |
| 117 nM | Cc1nc(NC(=O)c2ccccn2)sc1S(=O)(=O)Cc1c(Cl)cccc1Cl |
| 1060 nM | O=C(Nc1nc(C(F)(F)F)c(S(=O)(=O)Cc2c(F)cccc2F)s1)c1ccccn1 |
| 1390 nM | Cc1nc(NC(=O)c2ccccn2)sc1S(=O)(=O)Cc1cccc(Cl)c1 |
| 3110 nM | CC(C)c1nc(NC(=O)c2ccccn2)sc1S(=O)(=O)Cc1ccc(F)cc1F |
| 463 nM | O=C(Nc1nc(CF)c(S(=O)(=O)Cc2c(F)cccc2F)s1)c1ccccn1 |
| 8810 nM | O=C(Nc1nc(CO)c(S(=O)(=O)Cc2c(F)cccc2F)s1)c1ccccn1 |
| 709 nM | Cc1ccccc1CS(=O)(=O)c1sc(NC(=O)c2ccccn2)nc1C |
| 2980 nM | O=C(Nc1nc(C2CC2)c(S(=O)(=O)Cc2ccccc2Cl)s1)c1ccccn1 |
| 1510 nM | Cc1nc(NC(=O)c2ccccn2)sc1S(=O)(=O)Cc1ccc(F)cc1 |

| EC50 | Structure (SMILES) |
| --- | --- |
| 181 nM | O=C(Nc1nc(C(F)(F)F)c(S(=O)(=O)Cc2ccc(Cl)cc2F)s1)c1ccccn1 |
| 322 nM | Cc1nc(NC(=O)c2ccccn2)sc1S(=O)(=O)Cc1cc(F)c(F)cc1F |
| 1950 nM | CC(C)c1nc(NC(=O)c2ccccn2)sc1S(=O)(=O)Cc1ccccc1Cl |
| > 10000 nM | O=C(Nc1nc(C2CC2)c(S(=O)(=O)Cc2ccc(Cl)cc2Cl)s1)c1ccccn1 |
| 1330 nM | Cc1nc(NC(=O)c2ccccn2)sc1S(=O)(=O)Cc1ccccc1F |
| 398 nM | O=C(Nc1ncc(S(=O)(=O)Cc2ccccc2F)s1)c1ccccn1 |
| 535 nM | Cc1nc(NC(=O)c2ccccn2)sc1S(=O)(=O)Cc1cccc(Cl)c1F |
| 316 nM | CC(C)c1nc(NC(=O)c2ccccn2)sc1S(=O)(=O)Cc1c(F)cccc1F |
| 44.1 nM | O=C(Nc1ncc(S(=O)(=O)Cc2ccc(Cl)cc2F)s1)c1ccccn1 |
| 488 nM | CCc1nc(NC(=O)c2ccccn2)sc1S(=O)(=O)Cc1cccc(Cl)c1F |
| 5000 nM | O=C(Nc1ncc(SCc2ccc(Cl)cc2Cl)s1)c1ccccn1 |
| 450 nM | CCc1nc(NC(=O)c2ccccn2)sc1S(=O)(=O)Cc1ccc(C)cc1 |
| 1730 nM | O=C(Nc1nc(C(F)(F)F)c(S(=O)(=O)Cc2ccc(F)cc2F)s1)c1ccccn1 |
| 255 nM | Cc1nc(NC(=O)c2ccccn2)sc1S(=O)(=O)Cc1ccc(Cl)cc1F |
| 497 nM | O=C(Nc1nc(C(F)(F)F)c(S(=O)(=O)Cc2ccc(Cl)cc2Cl)s1)c1ccccn1 |
| 1010 nM | Cc1nc(NC(=O)c2ccccn2)sc1S(=O)(=O)Cc1ccc(F)cc1F |
| 312 nM | Cc1nc(NC(=O)c2ccccn2)sc1S(=O)(=O)Cc1c(F)cccc1F |
| 1050 nM | O=C(Nc1nc(C2CC2)c(S(=O)(=O)Cc2ccc(F)cc2F)s1)c1ccccn1 |
| 6970 nM | Cc1cccc(S(=O)(=O)c2sc(NC(=O)c3ccccn3)nc2C)c1 |
| 170 nM | O=C(Nc1ncc(S(=O)(=O)Cc2c(F)cccc2F)s1)c1ccccn1 |
| 3300 nM | CC(C)c1nc(NC(=O)c2ccccn2)sc1S(=O)(=O)Cc1ccc(Cl)cc1Cl |
| 139 nM | CCc1nc(NC(=O)c2ccccn2)sc1S(=O)(=O)Cc1c(F)cccc1F |

| EC50 | Structure (SMILES) |
| --- | --- |
| > 10000 nM | O=C(Nc1nc(C2CC2)c(S(=O)(=O)Cc2c(F)cccc2F)s1)c1ccccn1 |
| 49.9 nM | O=C(Nc1ncc(S(=O)(=O)Cc2ccc(Cl)cc2Cl)s1)c1ccccn1 |
| 354 nM | CCc1nc(NC(=O)c2ccccn2)sc1S(=O)(=O)Cc1c(C)cc(C)cc1C |
| 2350 nM | Cc1nc(NC(=O)c2ccccn2)sc1S(=O)(=O)Cc1ccc(F)c(Cl)c1 |
| 1960 nM | COc1ccc(CS(=O)(=O)c2sc(NC(=O)c3ccccn3)nc2C)cc1 |
| 249 nM | O=C(Nc1nc(C2CC2)c(S(=O)(=O)Cc2ccccc2F)s1)c1ccccn1 |
| 141 nM | CCc1nc(NC(=O)c2ccccn2)sc1S(=O)(=O)Cc1c(F)cccc1Cl |
| 3230 nM | Cc1nc(NC(=O)c2ccccn2)sc1S(=O)(=O)C(C)c1ccccc1Cl (stereo not given) |
| 683 nM | O=C(Nc1nc(C(F)F)c(S(=O)(=O)Cc2c(F)cccc2F)s1)c1ccccn1 |
| 3750 nM | CC(C)c1nc(NC(=O)c2ccccn2)sc1S(=O)(=O)C(C)c1ccccc1Cl (stereo not given) |
| > 10000 nM | O=C(Nc1ncc(S(=O)(=O)Cc2ccccc2Cl)s1)c1ccccn1 |
| 2930 nM | CC(C)c1nc(NC(=O)c2ccccn2)sc1S(=O)(=O)Cc1ccc(Cl)cc1F |
| 192 nM | Cc1nc(NC(=O)c2ccccn2)sc1S(=O)(=O)Cc1c(F)cccc1Cl |
| > 10000 nM | O=C(Nc1nnc(S(=O)(=O)Cc2ccccc2)s1)c1ccccn1 |
| 1050 nM | Cc1nc(NC(=O)c2ccccn2)sc1S(=O)(=O)Cc1ccc(C(C)C)cc1 |
| 445 nM | Cc1ccc(CS(=O)(=O)c2sc(NC(=O)c3ccccn3)nc2C)cc1 |
| 1290 nM | O=C(Nc1nc(C2CC2)c(S(=O)(=O)Cc2ccc(Cl)cc2F)s1)c1ccccn1 |
| 88 nM | CCc1nc(NC(=O)c2ccccn2)sc1S(=O)(=O)Cc1c(Cl)cccc1Cl |
| 294 nM | CCc1nc(NC(=O)c2ccccn2)sc1S(=O)(=O)Cc1ccc(Cl)cc1F |
| 3660 nM | CC(C)c1nc(NC(=O)c2ccccn2)sc1S(=O)(=O)Cc1ccccc1F |
| 289 nM | Cc1nc(NC(=O)c2ccccn2)sc1S(=O)(=O)Cc1ccc(Cl)cc1Cl |
